Experimental data: patent US5110911A, “Human tumor-associated Thomsen-Friedenreich antigen” (Biomira, Inc., priority 1989, dated 1992)
Each block holds one molecule with its values, some of them ahead of it.

Tests used:
49H.8 = conditions: inhibitor concentration of 2 mg/ml; cited from earlier work
[1] = system: TF Antigen Binding with MAb 49H.8 (LS174T Conditioned Medium); test: Inhibition of TF antigen binding with MAb 49H.8 by synthetic carbohydrates in SRIA, LS174T conditioned medium; parameters: species or system human
Protocol: (§1) Breakable strips of microtitre wells were coated with MAb […].8 or a control antibody (MOPC-104E), 1 μg/well, by overnight incubation at 4° C. The wells were then serially incubated with FBS 5% in PBS at 37° C. for 30 minutes, with antigen solution at 37° C. for two hours, and with radioiodinated PNA (2×10^5 cpm/well) at room temperature for two hours. The wells were washed with PBS containing 0.05% Tween-20 after each of the above steps. Each well was counted for ^125 I activity using a gamma counter.

[2] = system: antigen capture by MAb 49H.8; test: Inhibition of the antigen capture by synthetic carbohydrate haptens; assay type: binding
Protocol: as §1

[3] = system: TF Antigen Binding with MAb 49H.8 (Ta3-Ha Conditioned Medium); test: Inhibition of TF antigen binding with MAb 49H.8 by synthetic carbohydrates in SRIA, Ta3-Ha conditioned medium; parameters: species or system murine
Protocol: as §1

[4] = system: TF Antigen Binding with MAb 49H.8 (647V Conditioned Medium); test: Inhibition of TF antigen binding with MAb 49H.8 by synthetic carbohydrates in SRIA, 647V conditioned medium; parameters: species or system human
Protocol: as §1

[5] = system: TF Antigen Binding with MAb 49H.8 (PE89); test: Inhibition of TF antigen binding with MAb 49H.8 by synthetic carbohydrates in SRIA, PE89; parameters: species or system human
Protocol: as §1

carcinoma cell lines = conditions: all nine cell lines named; cited from earlier work

Molecule: CC(=O)N[C@@H]1[C@@H](O[C@@H]2O[C@H](CO)[C@H](O)[C@H](O)[C@H]2O)[C@@H](O)[C@@H](CO)O[C@@H]1O [TF disaccharide, D-β-Gal (1-3)-α-GalNAc]
inhibition in binding of 49H.8 to neuraminidase-treated erythrolytes (49H.8): 33%

Molecule: OC[C@H]1OC(O)[C@H](O)[C@@H](O)[C@H]1O (stereo partly drawn) [D-Gal]
inhibition in binding of 49H.8 to neuraminidase-treated erythrolytes (49H.8): 5%

% Inhibition ± SD, LS174T Conditioned Medium ([1]; inhibitor 5 mM): 86.95%
% Inhibition ± SD, LS174T Conditioned Medium ([1]; inhibitor 10 mM): 95.91%
% Inhibition ± SD, Ta3-Ha Conditioned Medium ([3]; inhibitor 5 mM): 69.40%
% Inhibition ± SD, Ta3-Ha Conditioned Medium ([3]; inhibitor 10 mM): 96.25%
% Inhibition ± SD, 647V Conditioned Medium ([4]; inhibitor 5 mM): 66.60%
% Inhibition ± SD, 647V Conditioned Medium ([4]; inhibitor 10 mM): 90.12%
% Inhibition ± SD, PE89 ([5]; inhibitor 5 mM): 45.48%
% Inhibition ± SD, PE89 ([5]; inhibitor 10 mM): 69.04%
Molecule: OC[C@H]1O[C@@H](Oc2ccccc2)[C@H](O)[C@@H](O)[C@H]1O [Phenyl-β-D-galactoside]
Inhibition of the positive reactivity in the sandwich assay (in words) [2]: inhibited

Molecule: p-nitrophenyl-α-D-galactoside [p-nitrophenyl α-D-galactoside]
Inhibition of the positive reactivity in the sandwich assay (in words) [2]: did not show any inhibition

Molecule: O=[N+]([O-])c1ccc(O[C@@H]2O[C@H](CO)[C@H](O)[C@H](O)[C@H]2O)cc1 [p-nitrophenyl-β-D-galactoside]
Inhibition of the positive reactivity in the sandwich assay (in words) [2]: inhibited

% Inhibition ± SD, LS174T Conditioned Medium ([1]; inhibitor 5 mM): -7.15%
% Inhibition ± SD, LS174T Conditioned Medium ([1]; inhibitor 10 mM): -1.67%
% Inhibition ± SD, Ta3-Ha Conditioned Medium ([3]; inhibitor 5 mM): 3.92%
% Inhibition ± SD, Ta3-Ha Conditioned Medium ([3]; inhibitor 10 mM): 1.38%
% Inhibition ± SD, 647V Conditioned Medium ([4]; inhibitor 5 mM): -3.00%
% Inhibition ± SD, 647V Conditioned Medium ([4]; inhibitor 10 mM): 0.58%
% Inhibition ± SD, PE89 ([5]; inhibitor 5 mM): -6.41%
% Inhibition ± SD, PE89 ([5]; inhibitor 10 mM): -4.61%
Molecule: OC[C@H]1O[C@@H](Oc2ccccc2)[C@H](O)[C@@H](O)[C@@H]1O [Phenyl-β-D-glucoside]
Inhibition of the positive reactivity in the sandwich assay (in words) [2]: did not show any inhibition

Molecule: CC(=O)N[C@@H]1[C@@H](O[C@@H]2O[C@H](CO)[C@H](O)[C@H](O)[C@H]2O)[C@@H](O)[C@@H](CO)O[C@H]1O [beta anomer]
inhibition in binding of 49H.8 to neuraminidase-treated erythrolytes (49H.8): 29%

B1: PNA: lectin extracted from the peanut (Arachis hypogaea) which recognizes the terminal disaccharide of the TF-antigen (protein, UniProt P02872 24-273, looked up)
Galactose-binding lectin: AETVSFNFNSFSEGNPAINFQGDVTVLSNGNIQLTNLNKVNSVGRVLYAMPVRIWSSATGNVASFLTSFSFEMKDIKDYDPADGIIFFIAPEDTQIPAGSIGGGTLGVSDTKGAGHFVGVEFDTYSNSEYNDPPTDHVGIDVNSVDSVKTVPWNSVSGAVVKVTVIYDSSTKTLSVAVTNDNGDITTIAQVVDLKAKLPERVKFGFSASGSLGGRQIHLIRSWSFTSTLITTTRRSIDNNEKKIMNMASA
Binding to carcinoma cell lines (carcinoma cell lines): marked
